The supplement of paper PMC10307832

Columns and labels:
Assay in all cases: relative viability (nuclei count vs DMSO), 5 days (fraction); higher = more cells survive
[1] = test system: ChaGo-K-1
In short: (§1)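 Relative viability divides the nuclei count in treated wells by that in vehicle wells. Lung cancer cell lines were seeded in 1536-well plates, dosed by pin tool the next day, and fixed and stained after 5 days in one step with final 0.05% Triton X-100, 1% formaldehyde and 1 ug/ml Hoechst. Dosing was a single drug or a fixed anchor-drug dose plus five library-drug doses (not always all listed) in √10 steps, and values are medians of duplicate plates imaged at 4×.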

[2] = test system: EKVX
In short: as §1

[3] = test system: EMC-BAC-2
In short: as §1

[4] = test system: EPLC-272H
In short: as §1

[5] = test system: H3255
In short: as §1

[6] = test system: HCC-15
In short: as §1

[7] = test system: HCC-827
In short: as §1

[8] = test system: LC-2-ad
In short: as §1

[9] = test system: LCLC-97TM1
In short: as §1

[10] = test system: NCI-H1793
In short: as §1

[11] = test system: NCI-H1915
In short: as §1

[12] = test system: NCI-H1944
In short: as §1

[13] = test system: NCI-H1993
In short: as §1

[14] = test system: NCI-H23
In short: as §1

[15] = test system: NCI-H322M
In short: as §1

[16] = test system: NCI-H460
In short: as §1

[17] = test system: NCI-H661
In short: as §1

[18] = test system: PC-14
In short: as §1

[19] = test system: SK-LU-1
In short: as §1

[20] = test system: SW 900
In short: as §1

Structure (SMILES): COCC1(CO)C(=O)C2CCN1CC2 (configuration not stated) [PRIMA-1MET] + COc1cc2c(Oc3ccc(NC(=O)C4(C(=O)Nc5ccc(F)cc5)CC4)cc3F)ccnc2cc1OCCCN1CCOCC1 [Foretinib] (partner 0.25 µM)
- relative viability ([1]; first compound 0.2 µM): 1.03
- relative viability ([1]; first compound 0.6325 µM): 0.838
- relative viability ([1]; first compound 2 µM): 0.911
- relative viability ([1]; first compound 6.325 µM): 1.01
- relative viability ([1]; first compound 20 µM): 0.859
- relative viability ([2]; first compound 0.2 µM): 0.988
- relative viability ([2]; first compound 0.6325 µM): 0.518
- relative viability ([2]; first compound 6.325 µM): 1.1
- relative viability ([2]; first compound 20 µM): 0.843
- relative viability ([3]; first compound 0.2 µM): 1.17
- relative viability ([3]; first compound 0.6325 µM): 1.01
- relative viability ([3]; first compound 6.325 µM): 1.04
- relative viability ([3]; first compound 20 µM): 1.03
- relative viability ([4]; first compound 2 µM): 0.603
- relative viability ([4]; first compound 6.325 µM): 0.896
- relative viability ([4]; first compound 20 µM): 0.105
- relative viability ([5]; first compound 0.2 µM): 0.822
- relative viability ([5]; first compound 0.6325 µM): 0.947
- relative viability ([5]; first compound 2 µM): 0.807
- relative viability ([5]; first compound 6.325 µM): 1.05
- relative viability ([5]; first compound 20 µM): 0.924
- relative viability ([6]; first compound 0.2 µM): 1.11
- relative viability ([6]; first compound 0.6325 µM): 0.986
- relative viability ([6]; first compound 2 µM): 1.03
- relative viability ([6]; first compound 6.325 µM): 1.02
- relative viability ([6]; first compound 20 µM): 0.555
- relative viability ([7]; first compound 0.2 µM): 1.09
- relative viability ([7]; first compound 0.6325 µM): 0.976
- relative viability ([7]; first compound 2 µM): 0.749
- relative viability ([7]; first compound 6.325 µM): 1.01
- relative viability ([7]; first compound 20 µM): 0.929
- relative viability ([8]; first compound 0.2 µM): 0.987
- relative viability ([8]; first compound 2 µM): 0.843
- relative viability ([8]; first compound 6.325 µM): 0.887
- relative viability ([8]; first compound 20 µM): 0.966
- relative viability ([9]; first compound 0.2 µM): 0.915
- relative viability ([9]; first compound 0.6325 µM): 0.909
- relative viability ([9]; first compound 2 µM): 0.926
- relative viability ([9]; first compound 6.325 µM): 0.945
- relative viability ([9]; first compound 20 µM): 0.826
- relative viability ([10]; first compound 0.2 µM): 0.858
- relative viability ([10]; first compound 0.6325 µM): 0.563
- relative viability ([10]; first compound 6.325 µM): 0.846
- relative viability ([10]; first compound 20 µM): 0.491
- relative viability ([11]; first compound 0.2 µM): 1.12
- relative viability ([11]; first compound 0.6325 µM): 0.958
- relative viability ([11]; first compound 6.325 µM): 1.08
- relative viability ([11]; first compound 20 µM): 1.05
- relative viability ([12]; first compound 0.2 µM): 1.02
- relative viability ([12]; first compound 0.6325 µM): 0.789
- relative viability ([12]; first compound 2 µM): 0.837
- relative viability ([12]; first compound 6.325 µM): 0.881
- relative viability ([12]; first compound 20 µM): 0.861
- relative viability ([13]; first compound 0.2 µM): 0.875
- relative viability ([13]; first compound 0.6325 µM): 0.767
- relative viability ([13]; first compound 2 µM): 0.657
- relative viability ([13]; first compound 6.325 µM): 0.803
- relative viability ([13]; first compound 20 µM): 0.754
- relative viability ([14]; first compound 0.2 µM): 1.09
- relative viability ([14]; first compound 0.6325 µM): 1
- relative viability ([14]; first compound 2 µM): 0.861
- relative viability ([14]; first compound 6.325 µM): 0.966
- relative viability ([14]; first compound 20 µM): 0.257
- relative viability ([15]; first compound 0.2 µM): 1.14
- relative viability ([15]; first compound 0.6325 µM): 0.911
- relative viability ([15]; first compound 6.325 µM): 1.18
- relative viability ([15]; first compound 20 µM): 0.931
- relative viability ([16]; first compound 0.2 µM): 1.08
- relative viability ([16]; first compound 0.6325 µM): 0.949
- relative viability ([16]; first compound 2 µM): 0.963
- relative viability ([16]; first compound 6.325 µM): 0.944
- relative viability ([16]; first compound 20 µM): 0.359
- relative viability ([17]; first compound 0.2 µM): 1.07
- relative viability ([17]; first compound 0.6325 µM): 1
- relative viability ([17]; first compound 2 µM): 0.975
- relative viability ([17]; first compound 6.325 µM): 0.988
- relative viability ([17]; first compound 20 µM): 0.979
- relative viability ([18]; first compound 0.2 µM): 1.01
- relative viability ([18]; first compound 0.6325 µM): 0.87
- relative viability ([18]; first compound 2 µM): 0.931
- relative viability ([18]; first compound 6.325 µM): 1.12
- relative viability ([18]; first compound 20 µM): 0.914
- relative viability ([19]; first compound 0.2 µM): 1
- relative viability ([19]; first compound 0.6325 µM): 0.863
- relative viability ([19]; first compound 2 µM): 0.885
- relative viability ([19]; first compound 6.325 µM): 0.834
- relative viability ([19]; first compound 20 µM): 0.405
- relative viability ([20]; first compound 0.2 µM): 0.928
- relative viability ([20]; first compound 0.6325 µM): 1.13
- relative viability ([20]; first compound 2 µM): 0.699
- relative viability ([20]; first compound 6.325 µM): 0.451
- relative viability ([20]; first compound 20 µM): 0.051
